Results published in patent publication US9611267B2, “Substituted tricyclic compounds as FGFR inhibitors” (Incyte Corporation, priority 2012, dated 2017).

Assays:
Format in all cases: biochemical
FGFR2 = FGFR2 (Homo sapiens (Human), UniProt P21802); test: FGFR enzymatic assay (FRET peptide phosphorylation), FGFR2; conditions: FGFR2 enzyme 0.01 nM, ATP 100 μM
In short: (§1)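 IC50 values were obtained from variable-slope sigmoidal dose-response fitting of a FRET read-out of peptide phosphorylation. The buffer, described for FGFR3, was 50 mM HEPES pH 7.5 with MgCl2, EGTA, Tween-20 and DTT.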

FGFR1 = FGFR1 (Homo sapiens (Human), UniProt P11362); test: FGFR enzymatic assay (FRET peptide phosphorylation), FGFR1; conditions: FGFR1 enzyme 0.02 nM, ATP 210 μM
In short: as §1

FGFR3 = FGFR3 (Homo sapiens (Human), UniProt P22607); test: FGFR enzymatic assay (FRET peptide phosphorylation), FGFR3; conditions: FGFR3 enzyme (Millipore), ATP 140 μM
In short: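 After 5-10 min pre-incubation of FGFR3 with serially diluted compound in pH 7.5 HEPES/MgCl2/EGTA/DTT buffer, the reaction proceeded 1 hr at 25° C. Phosphorylated peptide was detected by FRET, and IC50 was fitted with a variable-slope sigmoid.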

Measured: IC50

FGFR1, sequence (P11362 22-822): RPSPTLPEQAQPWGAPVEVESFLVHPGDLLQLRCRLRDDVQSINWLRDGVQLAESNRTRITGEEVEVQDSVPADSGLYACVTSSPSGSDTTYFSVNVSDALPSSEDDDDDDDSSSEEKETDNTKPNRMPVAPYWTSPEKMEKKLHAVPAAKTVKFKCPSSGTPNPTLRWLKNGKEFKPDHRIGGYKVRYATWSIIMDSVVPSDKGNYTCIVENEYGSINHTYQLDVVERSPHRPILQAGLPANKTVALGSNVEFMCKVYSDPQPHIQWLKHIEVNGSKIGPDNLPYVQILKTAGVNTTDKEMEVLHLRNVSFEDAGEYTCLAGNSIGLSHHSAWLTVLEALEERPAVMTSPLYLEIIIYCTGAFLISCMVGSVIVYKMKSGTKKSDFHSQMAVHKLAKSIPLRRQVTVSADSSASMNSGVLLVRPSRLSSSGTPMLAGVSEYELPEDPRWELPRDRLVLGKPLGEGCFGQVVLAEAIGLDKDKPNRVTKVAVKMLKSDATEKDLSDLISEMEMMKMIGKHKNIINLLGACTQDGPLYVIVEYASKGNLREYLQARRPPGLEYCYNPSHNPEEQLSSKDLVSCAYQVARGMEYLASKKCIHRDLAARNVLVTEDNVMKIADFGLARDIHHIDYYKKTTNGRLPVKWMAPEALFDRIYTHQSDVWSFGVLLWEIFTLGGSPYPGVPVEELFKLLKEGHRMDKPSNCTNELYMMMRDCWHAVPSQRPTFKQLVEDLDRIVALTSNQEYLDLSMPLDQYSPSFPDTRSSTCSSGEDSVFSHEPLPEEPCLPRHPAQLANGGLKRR
FGFR2, sequence (P21802 22-821): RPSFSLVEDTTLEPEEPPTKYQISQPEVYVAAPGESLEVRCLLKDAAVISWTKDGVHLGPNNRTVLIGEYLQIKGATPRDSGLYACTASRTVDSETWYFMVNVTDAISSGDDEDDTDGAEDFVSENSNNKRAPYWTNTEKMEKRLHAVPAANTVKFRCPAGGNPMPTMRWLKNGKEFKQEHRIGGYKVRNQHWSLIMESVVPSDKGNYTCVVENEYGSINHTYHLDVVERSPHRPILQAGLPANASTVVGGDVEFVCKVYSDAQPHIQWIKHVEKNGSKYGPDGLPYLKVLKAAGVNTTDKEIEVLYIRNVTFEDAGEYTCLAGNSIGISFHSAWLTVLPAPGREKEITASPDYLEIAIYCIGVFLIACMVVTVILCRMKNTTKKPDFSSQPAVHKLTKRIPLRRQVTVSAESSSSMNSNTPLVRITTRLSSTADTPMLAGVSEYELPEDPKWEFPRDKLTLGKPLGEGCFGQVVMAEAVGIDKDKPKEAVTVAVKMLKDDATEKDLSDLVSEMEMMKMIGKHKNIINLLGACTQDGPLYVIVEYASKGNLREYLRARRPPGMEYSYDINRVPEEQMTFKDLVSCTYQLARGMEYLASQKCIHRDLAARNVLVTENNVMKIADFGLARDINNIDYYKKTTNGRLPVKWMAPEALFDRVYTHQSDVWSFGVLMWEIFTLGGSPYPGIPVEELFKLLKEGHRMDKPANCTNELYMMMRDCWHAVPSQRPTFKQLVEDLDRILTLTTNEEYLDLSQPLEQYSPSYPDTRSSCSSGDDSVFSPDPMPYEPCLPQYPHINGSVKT
FGFR3, sequence (P22607 23-806): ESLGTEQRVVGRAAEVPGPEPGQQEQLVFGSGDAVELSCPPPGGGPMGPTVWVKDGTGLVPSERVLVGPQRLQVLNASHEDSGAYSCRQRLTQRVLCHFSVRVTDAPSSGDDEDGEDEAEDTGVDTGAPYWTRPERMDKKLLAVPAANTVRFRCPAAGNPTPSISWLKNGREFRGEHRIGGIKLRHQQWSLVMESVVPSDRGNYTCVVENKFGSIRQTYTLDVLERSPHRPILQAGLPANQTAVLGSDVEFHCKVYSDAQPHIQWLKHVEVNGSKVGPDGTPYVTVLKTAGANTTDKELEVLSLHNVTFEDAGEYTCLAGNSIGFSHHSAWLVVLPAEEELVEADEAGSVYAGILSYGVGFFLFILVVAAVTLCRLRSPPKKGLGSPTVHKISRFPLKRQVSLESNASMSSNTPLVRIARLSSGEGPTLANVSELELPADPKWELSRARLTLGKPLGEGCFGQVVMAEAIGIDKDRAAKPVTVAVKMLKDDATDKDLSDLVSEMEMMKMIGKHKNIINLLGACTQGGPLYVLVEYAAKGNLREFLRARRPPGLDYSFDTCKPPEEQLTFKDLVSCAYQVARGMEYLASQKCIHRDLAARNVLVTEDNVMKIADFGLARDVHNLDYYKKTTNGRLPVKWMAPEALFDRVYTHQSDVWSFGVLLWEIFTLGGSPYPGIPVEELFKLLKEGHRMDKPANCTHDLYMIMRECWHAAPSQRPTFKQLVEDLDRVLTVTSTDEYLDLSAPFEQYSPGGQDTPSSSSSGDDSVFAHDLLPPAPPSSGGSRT

COc1cc(OC)c(F)c(N2Cc3cnc4[nH]cc(CC#N)c4c3N(C)C2=O)c1F [Example 105, [3-(2,6-difluoro-3,5-dimethoxyphenyl)-1-methyl-2-oxo-2,3,4,7-tetrahydro-1H-pyrrolo[3′,2′:5,6]pyrido[4,3-d]pyrimidin-9-yl]acetonitrile]
< 100 nM: all assays above

COc1cc(OC)c(Cl)c(N2Cc3cnc4c(c3N(C3CCC3)C2=O)CC(=O)N4)c1F [Example 106, 3-(2-chloro-6-fluoro-3,5-dimethoxyphenyl)-1-cyclobutyl-3,4,7,9-tetrahydro-1H-pyrrolo[3′,2′:5,6]pyrido[4,3-d]pyrimidine-2,8-dione]
< 100 nM: all assays above

COc1cc(OC)c(Cl)c(N2Cc3cnc4[nH]ccc4c3N(c3cnn(C)c3)C2=O)c1F [Example 107, 3-(2-chloro-6-fluoro-3,5-dimethoxyphenyl)-1-(1-methyl-1H-pyrazol-4-yl)-1,3,4,7-tetrahydro-2H-pyrrolo[3′,2′:5,6]pyrido[4,3-d]pyrimidin-2-one]
< 100 nM: all assays above

COc1cc(OC)c(Cl)c(N2Cc3cnc4[nH]ccc4c3N(c3cccnc3)C2=O)c1F [Example 108, 3-(2-chloro-6-fluoro-3,5-dimethoxyphenyl)-1-pyridin-3-yl-1,3,4,7-tetrahydro-2H-pyrrolo[3′,2′:5,6]pyrido[4,3-d]pyrimidin-2-one]
< 100 nM: all assays above

COc1cc(OC)c(F)c(N2Cc3cnc4[nH]ccc4c3N(c3cccnn3)C2=O)c1F [Example 109, 3-(2,6-difluoro-3,5-dimethoxyphenyl)-1-pyridazin-3-yl-1,3,4,7-tetrahydro-2H-pyrrolo[3′,2′:5,6]pyrido[4,3-d]pyrimidin-2-one]
< 100 nM: all assays above

COc1cc(OC)c(F)c(N2Cc3cnc4[nH]c(CN5CCOCC5)cc4c3N(C)C2=O)c1F [Example 110, 3-(2,6-difluoro-3,5-dimethoxyphenyl)-1-methyl-8-(morpholin-4-ylmethyl)-1,3,4,7-tetrahydro-2H-pyrrolo[3′,2′:5,6]pyrido[4,3-d]pyrimidin-2-one]
< 100 nM: all assays above

COc1cc(OC)c(F)c(N2Cc3cnc4[nH]c(CN5CCC(O)CC5)cc4c3N(C)C2=O)c1F [Example 111, 3-(2,6-difluoro-3,5-dimethoxyphenyl)-8-[(4-hydroxypiperidin-1-yl)methyl]-1-methyl-1,3,4,7-tetrahydro-2H-pyrrolo[3′,2′:5,6]pyrido[4,3-d]pyrimidin-2-one]
< 100 nM: all assays above

COc1cc(OC)c(F)c(N2Cc3cnc4[nH]c(CN5CCC(F)(F)CC5)cc4c3N(C)C2=O)c1F [Example 112, 3-(2,6-difluoro-3,5-dimethoxyphenyl)-8-[(4,4-difluoropiperidin-1-yl)methyl]-1-methyl-1,3,4,7-tetrahydro-2H-pyrrolo[3′,2′:5,6]pyrido[4,3-d]pyrimidin-2-one]
< 100 nM: all assays above

COc1cc(OC)c(F)c(N2Cc3cnc4[nH]c(CN5CCCC(F)(F)C5)cc4c3N(C)C2=O)c1F [Example 113, 3-(2,6-difluoro-3,5-dimethoxyphenyl)-8-[(3,3-difluoropiperidin-1-yl)methyl]-1-methyl-1,3,4,7-tetrahydro-2H-pyrrolo[3′,2′:5,6]pyrido[4,3-d]pyrimidin-2-one]
< 100 nM: all assays above

COc1cc(OC)c(F)c(N2Cc3cnc4[nH]c(CCN5CCOCC5)cc4c3N(C)C2=O)c1F [Example 114, 3-(2,6-difluoro-3,5-dimethoxyphenyl)-1-methyl-8-(2-morpholin-4-ylethyl)-1,3,4,7-tetrahydro-2H-pyrrolo[3′,2′:5,6]pyrido[4,3-d]pyrimidin-2-one]
< 100 nM: all assays above

COc1cc(OC)c(F)c(N2Cc3cnc4[nH]c(CCN5CCC5)cc4c3N(C)C2=O)c1F [Example 115, 8-(2-azetidin-1-ylethyl)-3-(2,6-difluoro-3,5-dimethoxyphenyl)-1-methyl-1,3,4,7-tetrahydro-2H-pyrrolo[3′,2′:5,6]pyrido[4,3-d]pyrimidin-2-one]
< 100 nM: all assays above

COc1cc(OC)c(F)c(N2Cc3cnc4[nH]c(CCN5CCCC5)cc4c3N(C)C2=O)c1F [Example 116, 3-(2,6-difluoro-3,5-dimethoxyphenyl)-1-methyl-8-(2-pyrrolidin-1-ylethyl)-1,3,4,7-tetrahydro-2H-pyrrolo[3′,2′:5,6]pyrido[4,3-d]pyrimidin-2-one]
< 100 nM: all assays above

COc1cc(OC)c(F)c(N2Cc3cnc4[nH]c(CCCN5CCOCC5)cc4c3N(C)C2=O)c1F [Example 117, 3-(2,6-difluoro-3,5-dimethoxyphenyl)-1-methyl-8-(3-morpholin-4-ylpropyl)-1,3,4,7-tetrahydro-2H-pyrrolo[3′,2′:5,6]pyrido[4,3-d]pyrimidin-2-one]
< 100 nM: all assays above

COc1cc(OC)c(F)c(N2Cc3cnc4[nH]c(CCCN5CCN(C6CC6)CC5)cc4c3N(C)C2=O)c1F [Example 118, 8-[3-(4-cyclopropylpiperazin-1-yl)propyl]-3-(2,6-difluoro-3,5-dimethoxyphenyl)-1-methyl-1,3,4,7-tetrahydro-2H-pyrrolo[3′,2′:5,6]pyrido[4,3-d]pyrimidin-2-one]
< 100 nM: all assays above

CCN1CCN(C(=O)c2cc3c4c(cnc3[nH]2)CN(c2c(F)c(OC)cc(OC)c2F)C(=O)N4C)CC1 [Example 119, 3-(2,6-difluoro-3,5-dimethoxyphenyl)-8-[(4-ethylpiperazin-1-yl)carbonyl]-1-methyl-1,3,4,7-tetrahydro-2H-pyrrolo[3′,2′:5,6]pyrido[4,3-d]pyrimidin-2-one]
< 100 nM: all assays above

COc1cc(OC)c(F)c(N2Cc3cnc4[nH]c(C(=O)N5C[C@@H](C)N[C@@H](C)C5)cc4c3N(C)C2=O)c1F [Example 120, 3-(2,6-difluoro-3,5-dimethoxyphenyl)-8-{[(3R,5S)-3,5-dimethylpiperazin-1-yl]carbonyl}-1-methyl-1,3,4,7-tetrahydro-2H-pyrrolo[3′,2′:5,6]pyrido[4,3-d]pyrimidin-2-one]
< 100 nM: all assays above

CCN1C(=O)N(c2c(F)c(OC)cc(OC)c2F)Cc2cnc3[nH]ccc3c21 [Example 121, 3-(2,6-Difluoro-3,5-dimethoxyphenyl)-1-ethyl-1,3,4,7-tetrahydro-2H-pyrrolo[3′,2′:5,6]pyrido[4,3-d]pyrimidin-2-one]
< 100 nM: all assays above

COc1cc(OC)c(F)c(N2Cc3cnc4c(c3N(Cc3cccc(C#N)c3)C2=O)CC(=O)N4)c1F [Example 123, 3-{[3-(2,6-difluoro-3,5-dimethoxyphenyl)-2,8-dioxo-2,3,4,7,8,9-hexahydro-1H-pyrrolo[3′,2′:5,6]pyrido[4,3-d]pyrimidin-1-yl]methyl}benzonitrile]
< 100 nM: all assays above

COc1cc(OC)c(Cl)c(N2Cc3cnc4c(c3N(c3cccc(F)c3F)C2=O)CC(=O)N4)c1F [Example 124, 3-(2-chloro-6-fluoro-3,5-dimethoxyphenyl)-1-(2,3-difluorophenyl)-3,4,7,9-tetrahydro-1H-pyrrolo[3′,2′:5,6]pyrido[4,3-d]pyrimidine-2,8-dione]
< 100 nM: all assays above

COc1cc(OC)c(F)c(N2Cc3cnc4c(c3N(c3ccc(C#N)cc3F)C2=O)CC(=O)N4)c1F [Example 125, 4-[3-(2,6-difluoro-3,5-dimethoxyphenyl)-2,8-dioxo-2,3,4,7,8,9-hexahydro-1H-pyrrolo[3′,2′:5,6]pyrido[4,3-d]pyrimidin-1-yl]-3-fluorobenzonitrile]
< 100 nM: all assays above

CCN1C(=O)N(c2c(F)c(OC)cc(OC)c2F)Cc2cnc3[nH]c(CN4CCN(C)CC4)cc3c21 [Example 127, 3-(2,6-difluoro-3,5-dimethoxyphenyl)-1-ethyl-8-[(4-methylpiperazin-1-yl)methyl]-1,3,4,7-tetrahydro-2H-pyrrolo[3′,2′:5,6]pyrido[4,3-d]pyrimidin-2-one]
< 100 nM: all assays above

COc1cc(OC)c(F)c(N2Cc3cnc4[nH]c(CN5CCN(C)CC5)cc4c3N(C)C2=O)c1F [Example 129, 3-(2,6-difluoro-3,5-dimethoxyphenyl)-1-methyl-8-[(4-methylpiperazin-1-yl)methyl]-1,3,4,7-tetrahydro-2H-pyrrolo[3′,2′:5,6]pyrido[4,3-d]pyrimidin-2-one]
< 100 nM: all assays above

COc1cc(OC)c(F)c(N2Cc3cnc4[nH]c(CN5CCN(CCO)CC5)cc4c3N(C)C2=O)c1F [Example 130, 3-(2,6-difluoro-3,5-dimethoxyphenyl)-8-{[4-(2-hydroxyethyl)piperazin-1-yl]methyl}-1-methyl-1,3,4,7-tetrahydro-2H-pyrrolo[3′,2′:5,6]pyrido[4,3-d]pyrimidin-2-one]
< 100 nM: all assays above
